Where a name gives a salt, the structure may show the parent alone.
What was measured:
[1] = tested on: D1-MSNs in the NAc core; assay: AMPA/NMDA ratio on D1-MSNs after in vivo treatment; design: species or system mouse; details: L741,626 i.p. 3 mg/kg co-administered with daily cocaine over 5 days
Protocol: (§1) Repeated non-contingent administration of cocaine results in lower AMPA/NMDA ratios of excitatory inputs onto the NAc specifically on the D1-MSN subtype (Kim et al., 2011; Pascoli et al., 2012). To test whether the decrease in AMPA/NMDA ratios after repeated drug administration is due to the increase in TNFα expression, the AMPA/NMDA ratio was evaluated on D1 and D2 MSNs in the NAc core following cocaine or saline administration in WT and TNFα^−/− mice. […] This is consistent with the exocytosis of AMPARs observed with direct stimulation of D1Rs on MSNs (Mangiavacchi and Wolf, 2004). […] To test the hypothesis that potentiated D1-MSNs are more sensitive to TNFα, TNFα mice were treated with a single injection of cocaine and the effect of a low level of TNFα (10 ng/ml) on AMPA/NMDA ratios was evaluated. […] This treatment had no effect on D2-MSNs (FIG. 9B). To test whether cocaine-induced TNFα signaling would occlude further TNFα synaptic depression, wildtype animals were treated with cocaine for 5 days, and then treated striatel slices ex-vivo with TNFα (100 ng/ml). The AMPA/NMDA ratio on D1-MSNs (already reduced compared to saline treated animals; FIG. 5E) was not further reduced by treatment with TNFα (FIG. 5G).
Because depotentiation of MSNs reduced cocaine-induced behavioural sensitization (Pascoli et al., 2012), it was tested whether re-activation of microglia would depress NAc synapses and suppress sensitization. To do this, monophosphoryl lipid A (MPLA), a detoxified variant of LPS, was used (Casella and Mitchell, 2008). MPLA acts as a weak TLR4 agonist that is at least 100-fold less pyrogenic than LPS (Cluff, 2010) and is used in humans as an adjuvant for several vaccine formulations. […] It was verified that MPLA activates microglia in the striatum, by injecting 10 μg MPLA IP after 10 days withdrawal from cocaine. […] This is consistent with previous observations that MPLA acts as a microglia modulator (Michaud et al., 2013). […] It was next tested if MPLA treatment would depress synaptic strength in the NAc core. After 10 days of withdrawal, animals were injected with MPLA and evaluated 24 hours later for AMPA/NMDA ratios on D1-MSNs.
240 μm thick coronal slices containing the nucleus accumbens were prepared from brains of 8-9 week-old mice (with fluorescent D1-MSNs). After a 1 h recovery period, slices were placed in a submersion-type recording chamber and perfused (1.5-2 ml/min) at 30° C. with a bicarbonate-buffered artificial CSF saturated with 95% O2/5% CO2 and containing (in mM): 119 NaCl, 2.5 KCl, 1 NaH2PO4, 1.3 MgCl2, 2.5 CaCl2, 26.2 NaHCO3, 11 glucose, and 0.05 picrotoxin. Whole-cell voltage-clamp recordings from medium spiny neurons in the nucleus accumbens core were obtained under visual control using infrared-differential interference contrast microscopy. Whole-cell electrodes (2-4 MΩ) were filled with internal solution containing the following (in mM): 120 CsMeSO3, 15 CsCl, 8 NaCl, 0.2 EGTA, 10 HEPES, 2 Mg-ATP, 0.3 Na-GTP, 10 tetraethylammonium, and 5 QX-314 [5-N-(2,6-dimethylphenylcarbamoylmethyl)triethylammonium bromide] (308-310 mOsm). pH was adjusted to 7.3 with CsOH. Cells with series resistance above 25 MΩ or a 20% change over time were excluded. Synaptic currents were evoked using stainless-steel bipolar stimulating electrodes placed 100-150 μm rostral to the recorded neurons. EPSCs were acquired with an Axopatch 200B (Molecular Devices), filtered at 2 kHz, and digitized at 10 kHz. Acquisition and analysis was performed using pCLAMP 10.2 (Molecular Devices). To calculate AMPA/NMDA ratios, evoked synaptic responses were collected at −70 mV to measure AMPAR-mediated EPSCs and at +40 mV to measure NMDAR-mediated EPSCs. Typically, 20 responses were averaged to generate an average response. The peak AMPA response was used to calculate the AMPAR component and the amplitude at 40 ms post the AMPAR peak response was used to calculate the slower NMDA component at +40 mV to calculate the AMPA/NMDA ratio.

[2] = tested on: TNFα; assay: TNFα mRNA / protein in ventral striatum (NAc) after in vivo treatment; design: species or system mouse; details: L741,626 i.p. 3 mg/kg 15 min before daily cocaine, 5 days; adult mice
Protocol: To determine the effect of in vivo cocaine exposure on TNFα levels in the ventral striatum, TNFα mRNA and protein levels were measured in mice given intraperitoneal injections of saline or cocaine. […] To understand the impact of TNFα on synaptic function in the NAc, AMPA/NMDA ratios were measured at glutamatergic synapses on MSNs in the NAc core. Alteration in NAc core AMPA receptors are involved in the expression of behavioral sensitization to psychostimulants (Kalives, 2009).
Mice (8-10 weeks) were perfused and their brains submerged overnight in 4% PFA, cryoprotected with 30% sucrose, and cut in 30 μm thick coronal slices using a cryostat. The sections were incubated for 4 hours with blocking solution (2% normal goat serum, 3% BSA, 0.2% Triton X-100 in PBS) before incubation overnight at 4 C with primary antibodies in blocking solution (rabbit anti-Iba1 antibody [019-19741, Wako; 1:800; RRID: AB_2566825], chicken anti-GFAP antibody [AB5541, Millipore; 1:500; RRID: AB_177521], rabbit anti-NeuN [ab104225, Abcam, 1:400; RRID: AB_10711153], and rabbit anti-TNFα antibody [ab6671, Abcam, 1:100; RRID: AB_305641] or mouse anti-TNFα antibody [ab1793, Abcam, 1:100; RRID: AB_302615]). Sections were washed (2×15 min with PBST [0.05% Tween20] and 1×15 min with PBS at RT) and incubated for 2 hrs at room temperature in secondary antibodies (anti-rabbit, anti-chicken, or anti-mouse IgG-conjugated Alexa Fluorochrome [Invitrogen; 1:400]). Sections were washed and briefly (<30 seconds) incubated with Hoechst 33342 [H1399, Molecular Probes; 1:10,000] in PBS. The stained sections were imaged using an Olympus FluoView FV1000 confocal microscope with Fluoview imaging software (FV10-ASW). Images of the ventral striatum (nucleus accumbens core and shell) were acquired with a 40× or 60× objective and stacks of 25-30 optical sections (1 μm per section) of depth were Z-projected into a single window and analysed using ImageJ software (NIH).
The number of Iba1+ microglia were manually counted from 212×212 μm (60× objectives) or 317×317 μm (40× objectives) images. TNFα intensity was measured using the mean grey value of the entire image while Iba1 intensity measurements were obtained using a thresholded area to highlight only the microglia. Cell body area (μm^2) was measured based on Iba1 staining and using the freehand selection tool. Additional analysis of microglia morphology in saline and cocaine treated mice was done using IMARIS software (Bitplane). […] The following parameters were analyzed for 40 microglia per group: total process length (sum of length of all processes), total process volume, process diameter and number of branch points and terminals. […]
After 40 cycles, the Ct values were determined.

[3] = tested on: primary rat microglia cultures; assay: TNFα mRNA in primary rat microglia cultures; format: cell-based; details: agonist 1 μm, 3 h
Protocol: For tissue, total RNA from the ventral striatum was extracted and isolated by RNAqueous-4PCR total RNA isolation kit (Ambion, AM1914), according to manufacturer's instructions. For microglia and astrocyte cultures, total RNA was isolated by RNeasy kit (Qiagen, 74136). For all sample types, 0.5 μg of total RNA was used for cDNA synthesis with Quantitect Reverse Transcription Kit (Qiagen, 205313), and quantitative RT-PCR was performed with Fast SYBR-Green Master Mix (Applied Biosystems) detected by StepOne Plus RealTime PCR system (Applied Biosystems). The sequences of qPCR primers used for mRNA quantification in this study were obtained from Integrated DNA Technologies, and are as follows: mouse TNFα forward, […] (SEQ ID NO: 1) [200 nM]; mouse TNFα reverse, […] (SEQ ID NO: 2) [200 nM]; mouse GAPDH forward, […] (SEQ ID NO: 3) [300 nM]; mouse GAPDH reverse, […] (SEQ ID NO: 4) [300 nM]; rat TNFα forward, […] (SEQ ID NO: 1) [600 nM]; rat TNFα reverse, […] (SEQ ID NO: 5) [600 nM]; rat cyclophilin forward, […] (SEQ ID NO: 6) [500 nM]; rat cyclophilin reverse, […] (SEQ ID NO: 7) [500 nM]. After 40 cycles, the Ct values were determined. To normalize the samples, ΔCt between TNFα and GADPH or cyclophilin Ct values was calculated. The x-fold difference in expression between the different treatments was then determined by subtraction of the ΔCt values and termed ΔΔCt. Finally, the total change was calculated as 2-ΔΔct and the relative amount compared with control samples was deducted.
Mixed microglia-astrocyte primary cultures were prepared from the striatum of postnatal rats (day 0), essentially as described (Beattie et al., 2002). Briefly, tissue was dissociated by […], and cells were seeded in glia media (MEM containing 5% FBS, 1.5% high sucrose MEM and 0.1% glutamax) on culture flasks (Corning) coated with poly-D lysine (Sigma) and placed in a humidified incubator at 37 C with 5% CO2. Neurons were removed by mechanical disruption and the medium was changed at day 1, and every 5-7 days after. […]

[4] = tested on: D2-MSNs in the NAc core; assay: AMPA/NMDA ratio, acute NAc slices treated ex-vivo with TNFα, D2-MSNs; format: cell-based, mouse; details: for mean AMPA/NMDA ratio, D2 MSNs: NAc core
Protocol: (§2) It has been previously shown that TNFα drives internalization of AMPARs on MSNs in the dorsal striatum (Lewitus et al., 2014). As repeated cocaine administration primarily affects direct-pathway MSNs, specific subpopulations of MSNs in the NAc core were tested for their response to TNFα. Acute NAc slices were incubated with TNFα (10 ng/ml or 100 ng/ml) and whole-cell recording were made for Drd1a-td Tomato (D1) positive and negative (D2) MSNs. […] A low dose of TNFα (10 ng/ml) had no significant effect on either cell type.
as §1
. […] Synaptic currents were evoked using stainless-steel bipolar stimulating electrodes placed 100-150 μm rostral to the recorded neurons. […]

[5] = tested on: D1-MSNs in the NAc core; assay: AMPA/NMDA ratio, acute NAc slices treated ex-vivo with TNFα, D1-MSNs; format: cell-based, mouse; details: for mean AMPA/NMDA ratio, D1 MSNs: NAc core
Protocol: as §2, §1
. After a 1 h recovery period, slices were placed in a submersion-type recording chamber and perfused (1.5-2 ml/min) at 30° C. with a bicarbonate-buffered artificial CSF saturated with 95% O2/5% CO2 and containing (in mM): 119 NaCl, 2.5 KCl, 1 NaH2PO4, 1.3 MgCl2, 2.5 CaCl2, 26.2 NaHCO3, 11 glucose, and 0.05 picrotoxin. Whole-cell voltage-clamp recordings from medium spiny neurons in the nucleus accumbens core were obtained under visual control using infrared-differential interference contrast microscopy. Whole-cell electrodes (2-4 MΩ) were filled with internal solution containing the following (in mM): 120 CsMeSO3, 15 CsCl, 8 NaCl, 0.2 EGTA, 10 HEPES, 2 Mg-ATP, 0.3 Na-GTP, 10 tetraethylammonium, and 5 QX-314 [5-N-(2,6-dimethylphenylcarbamoylmethyl)triethylammonium bromide] (308-310 mOsm). pH was adjusted to 7.3 with CsOH. Cells with series resistance above 25 MΩ or a 20% change over time were excluded. Synaptic currents were evoked using stainless-steel bipolar stimulating electrodes placed 100-150 μm rostral to the recorded neurons. […]

OC1(c2ccc(Cl)cc2)CCN(Cc2c[nH]c3ccccc23)CC1 [L741,626]
AMPA/NMDA ratio on D1-MSNs vs cocaine alone [1]: increase
TNFα mRNA in ventral striatum tissue [2]: significantly decreases

Oc1cc2c(cc1O)C(c1ccccc1)CNCC2 (centres unmarked) [SKF-38393]
change in TNFα mRNA in primary rat microglia cultures [3]: had no effect

CCCN[C@H]1CCc2nc(N)sc2C1 [pramipexole, pramipexole dihydrochloride]
change in TNFα mRNA in primary rat microglia cultures [3]: did not affect

Tumor necrosis factor alpha [TNFα]
effect on AMPA/NMDA ratios in D2-MSNs ([4]; TNFα-KO mice, cocaine 24 hours prior, 10 ng/ml TNFα ex-vivo): had no effect
mean AMPA/NMDA ratio, D2 MSNs ([4]; slices treated with 10 ng/ml TNFα (printed D2(10 ug TNF))): 2.78±0.34
mean AMPA/NMDA ratio, D2 MSNs ([4]; slices treated with 100 ng/ml TNFα (printed D2(100 ug TNF))): 2.02±0.18
mean AMPA/NMDA ratio, D1-MSNs ([5]; TNFα−/− mice treated 24 hours prior with cocaine, 10 ng/ml TNFα ex-vivo): 3.08±0.42
mean AMPA/NMDA ratio, D1 MSNs ([5]; slices treated with 10 ng/ml TNFα (printed D1(10 ug TNF))): 3.1±0.52
mean AMPA/NMDA ratio, D1 MSNs ([5]; slices treated with 100 ng/ml TNFα (printed D1(100 ug TNF))): 2.42±0.23
mean AMPA/NMDA ratio, D1-MSNs ([5]; wildtype mice after 5 daily cocaine injections, 100 ng/ml TNFα ex-vivo): 4.06±0.46

From US10328092B2, “Methods and compositions for treatment of drug addiction” (The Royal Institution for the Advancement of Learning / …, priority 2015, dated 2019)
